What was measured:
CCK-A = target: T1, CCK-A (Rattus norvegicus, UniProt P30551); experiment: Displacement of 125I-CCK-OP binding to rat pancreatic membranes (CCK-A binding); conditions: 125I-CCK-OP
T1 sequence (P30551 1-444): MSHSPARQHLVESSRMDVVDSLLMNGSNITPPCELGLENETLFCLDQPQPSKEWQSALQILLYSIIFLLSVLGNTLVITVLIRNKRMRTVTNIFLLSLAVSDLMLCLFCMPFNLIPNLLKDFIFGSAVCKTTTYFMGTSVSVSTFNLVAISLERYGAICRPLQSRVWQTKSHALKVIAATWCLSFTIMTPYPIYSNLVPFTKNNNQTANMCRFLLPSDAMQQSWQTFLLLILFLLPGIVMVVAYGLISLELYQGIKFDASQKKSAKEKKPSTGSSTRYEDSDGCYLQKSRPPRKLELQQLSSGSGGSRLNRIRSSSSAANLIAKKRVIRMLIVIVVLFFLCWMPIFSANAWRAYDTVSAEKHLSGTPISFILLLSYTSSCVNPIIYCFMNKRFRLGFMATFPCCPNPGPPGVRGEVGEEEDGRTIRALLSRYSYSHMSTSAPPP

CCK receptors = experiment: Rat gastric emptying: reversal of CCK-delayed gastric emptying; assay type: in vivo; conditions: CCK 100 μg/Kg i.p.; for CCK-delayed gastric emptying: ED50: IP
Procedure: Rat Gastric Emptying Protocol
A test meal for measuring gastric emptying in rats was prepared. Ten grams of methylcellulose (2% solution=15 centipoises; Aldrich Chemical Company, Milwaukee, Wisc. was added to 200ml of cold water and mixed at 20,000 rpm in a Waring blender to insure dispersion and hydration of the methylcellulose. In addition, two beef bouillon cubes (Wyler's, Columbus, Ohio) dissolved in 100 ml of warm water was added to the mixture, followed by 16 g of casein (Hammersten, Schwartz/Mann, Orangeburg, N.Y.), 8 g of powdered confectioners sugar and 8 g of cornstarch. The ingredients were mixed for two minutes at 20,000 rpm and the resultant test meal was refrigerated for 48 hours to allow trapped air to escape. Male Charles River Rats, Crl: COBS, CD (SD) BR Strain, 180-200 g body weight, were used in groups of six animals. The animals were food deprived for 24 hours prior to the experiment with access to water ad libitum. The compounds to be evaluated were prepared in a 0.5% aqueous methylcellulose solution. If insoluble, the mixture was homogenized for two minutes at 5500 rpm using a Try-R-Stir-R. The compounds were given intraperitoneally or intragastrically at a volume of 5 ml/kg, 60 minutes or 90 min, respectively, before the test meal. Control animals received only the vehicle. Cholecystokinin (100 μg/Kg, i.p.) was given 30 minutes before the test meal to delay gastric emptying by an effect elicited through CCK receptors. Sixty minutes after the test meal (2.0 ml/rat, i.g.), the rats were sacrificed by CO2 asphyxiation. The stomachs were removed intact and weighed. The stomachs were kept opened, gently rinsed with tap water, blotted dry with paper toweling, and the empty stomach weighed. The difference between the weight of the full and empty stomach is indicative of the amount of meal remaining in the stomach. The amount of meal remaining in the stomach was subtracted from the weight of 3 ml of the test meal to determine the amount of food emptied from the stomach during the test. Weight of the test meal was determined by weighing three samples (3 ml) at the beginning and three samples at the end of each experiment and calculating the mean. The mean and standard error of the amount of meal emptied were calculated for at least 5 doses of compound, and expressed as percent change from control.

CCK-B = target: T2, CCK-B (Cavia porcellus, UniProt H0VZC5); experiment: Displacement of 125I-CCK-OP binding to guinea pig brain homogenates (CCK-B binding); conditions: guinea pig brain membranes; for inhibition at 10 µM: read-out: CCK-B binding GP brain membranes: percent displacement of 125I-CCK-OP
T2 construct: Rat pancreas or guinea pig brain was homogenized; from tissue; host or cells: guinea pig brain homogenate (membrane pellet)
T2 sequence (H0VZC5 1-426): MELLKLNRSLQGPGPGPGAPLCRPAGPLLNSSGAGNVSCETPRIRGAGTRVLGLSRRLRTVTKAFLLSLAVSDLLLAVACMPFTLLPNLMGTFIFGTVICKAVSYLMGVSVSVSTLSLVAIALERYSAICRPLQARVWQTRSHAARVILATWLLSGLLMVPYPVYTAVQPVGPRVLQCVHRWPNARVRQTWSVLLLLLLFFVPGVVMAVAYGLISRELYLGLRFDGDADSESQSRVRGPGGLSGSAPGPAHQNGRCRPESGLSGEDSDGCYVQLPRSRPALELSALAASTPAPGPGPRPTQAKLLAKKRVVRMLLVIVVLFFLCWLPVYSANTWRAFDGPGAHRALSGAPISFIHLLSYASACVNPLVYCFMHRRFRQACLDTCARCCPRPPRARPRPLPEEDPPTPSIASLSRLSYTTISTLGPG
Procedure: Percent displacement of ^125 I-CCK-OP binding to rat pancreatic membrane and guinea pig brain homogenates by compounds of the instant invention at different concentrations was used to quantify CCK-A and CCK-B receptor binding, respectively.
Binding of 125-CCK-OP to rat pancreas (CCK-A) and guinea pig brain (CCK-B) homogenates.
Rat pancreas or guinea pig brain was homogenized in 50 and 20 volumes, respectively, of 50 mM Tris-HCl buffer (pH 7.8 at 25° C.) with a Brinkmann polytron homogenizer. The homogenates were centrifuged twice at 50,000 x g for 20 min with an intermediate rehomogenization in fresh buffer. The final pellets were resuspended in 20 volumes (brain) or 40 volumes (pancreas) of incubation buffer [50 mM Tris-HCl, 5 mM MgCl2, 0.2% BSA, 5 mM dithiothreitol, 0.14 mg/ml bacitracin, pH 7.9 at 25° C.]. One milliliter of the final homogenate from brain or pancreas was diluted to 50 mL with incubation buffer to use in the binding assay.
Binding experiments were performed in a final volume of 1 mL in 13×100 mm borosilicate disposable culture tubes. To duplicate tubes were added 890 μL of freshly resuspended pancreas or brain homogenate; 73,000 dpm of […] (final concentration, 12 pM) and 10 μL of DMSO containing displacing agents (compounds or reference compounds, at the desired final concentrations). Nonspecific (nonsaturable) binding was determined in the presence of 1 μM unlabeled CCK-OP. After incubation for 30 min at 37° C. the binding was stopped by rapid filtration under a reduced pressure through glass fiber FPD-105 Whatman GF/B filters on Harvester and washed twice with 5 mL of ice-cold Tris buffer (50 mM Tris-HCl, pH 7.8). The radioactivity on the filters was counted in a gama counter. […] Specific binding was defined as the excess binding over that in blanks containing 1 μM unlabeled CCK-OP.
Determination of IC50 for displacing agents

With `O=C(N[C@@H]1C(=O)N(c2ccccc2)C[C@@H]1C(=O)O)c1ccc2ccccc2c1` (relative stereo) [41 cis] the IC50 (CCK-A) was 15 nM, the “CCK-delayed gastric emptying: ED50” value (CCK receptors) was 0.41 mpk and the inhibition at 10 µM (CCK-B) was 48%.
For `O=C(N[C@H]1C(=O)N(c2ccccc2)C[C@H]1C(=O)O)c1cc2ccccc2[nH]1` (relative stereo) [Example 29, cis-4-[(1H-indol-2-ylcarbonyl)amino]-5-oxo-1-phenyl-3-pyrrolidinecarboxylicacid], the IC50 (CCK-A) was 17 nM, the “CCK-delayed gastric emptying: % Reversal @ Dose” value (CCK receptors; 1.0 mpk IP) was 86.3% and the “CCK-delayed gastric emptying: ED50” value (CCK receptors) was < 0.1 mpk. The IC50 (CCK-B; 125I-CCK-OP, read-out: CCK-B binding GP brain membranes: IC50) was 5.1 µM.
With `O=C(N[C@H]1C(=O)N(c2ccccc2)C[C@H]1C(=O)O)c1ccc(Cl)c(Cl)c1` (relative stereo) [Example 35 (cis), cis-4-[[(3,4-dichlorophenyl)carbonyl]amino]-5-oxo-1-phenyl-3-pyrrolidinecarboxylic acid] the IC50 (CCK-A) was 58 nM, the “CCK-delayed gastric emptying: % Reversal @ Dose” value (CCK receptors; 3 mpk IP) was 57.9% and the inhibition at 10 µM (CCK-B) was 35%.
`O=C(N[C@H]1C(=O)N(c2ccccc2F)C[C@H]1C(=O)O)c1ccc2ccccc2c1` (relative stereo) [Example 44, cis-1-(2-Fluorophenyl)-4-[(2-naphthalenylcarbonyl]amino]-5-oxo-3-pyrrolidinecarboxylic acid] was tested, and the “CCK-delayed gastric emptying: % Reversal @ Dose” value (CCK receptors; 3 mpk IP) was 86%, the “CCK-delayed gastric emptying: ED50” value (CCK receptors) was 1.7 mpk and the inhibition at 10 µM (CCK-B) was 41%.

Reference: patent US5314886A, “N-substituted lactams useful as cholecystokinin antagonists” (priority 1992, dated 1994)
